For one assay, the target named is β1-adrenergic receptor (Homo sapiens, UniProt P08588). The assay is described as follows: Binding-displacement at β1-adrenergic receptor (FIG. 2D). The settings on record: membranes or solubilized receptor; 10 μM unlabeled ligand. The protocol: The β1-adrenergic receptor, either in the membranes or solubilized (according to the invention), was incubated with the radiolabeled ligand, iodocyanopindolol, at a set concentration, in the presence or absence of 10 μM unlabeled ligand (pindolol). In the absence of unlabeled ligand, maximal binding of the radiolabeled ligand is observed.

Assay [1] has as its target T1, CCR5 (Homo sapiens, UniProt P51681, L55Q).
T1 construct: made in house; host or cells: insect cells (Sf9 / High Five), baculovirus
T1 sequence (P51681 1-352 L55Q): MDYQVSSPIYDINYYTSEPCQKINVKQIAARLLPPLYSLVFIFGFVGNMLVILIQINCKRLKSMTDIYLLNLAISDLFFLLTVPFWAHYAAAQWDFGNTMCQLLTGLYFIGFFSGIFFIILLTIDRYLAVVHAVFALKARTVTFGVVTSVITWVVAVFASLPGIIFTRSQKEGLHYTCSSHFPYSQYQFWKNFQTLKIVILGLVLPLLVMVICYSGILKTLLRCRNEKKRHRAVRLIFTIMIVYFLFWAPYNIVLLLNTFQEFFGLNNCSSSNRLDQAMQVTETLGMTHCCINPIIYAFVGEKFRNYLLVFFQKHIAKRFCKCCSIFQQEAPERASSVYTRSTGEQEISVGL
Kind of assay: Binding-displacement of radiolabeled MIP-1β at CCR5 (FIG. 2A). The settings on record: CCR5 in membranes or solubilized and immobilized; various concentrations. On the procedure:
The CCR5 receptor, either in membranes or solubilized and immobilized onto the column, was incubated with the radiolabeled ligand, MIP-1β, at a set concentration, in the presence of various concentrations of the unlabeled ligand, MIP-1α. […] This displacement of the radioligand with increasing concentrations of unlabeled ligand gave a standard sigmoidal shaped curve. The two curves, one for the membrane binding-displacement and one for the binding-displacement for the immobilized receptor were substantially similar (within the experimental error), indicating similar functional conformation of the receptor in the membranes and immobilized receptor.

In assay [2] the test system is CCR5. The assay is described as follows: Affinity de-orphaning: in vitro translated cDNA pool incubated with immobilized CCR5-GST, SDS-PAGE/phosphorimage. The settings on record: human lung cDNA library spiked with RANTES, [35S]-Met, CCR5 on sepharose beads. The assay is classed as binding. On the procedure:
CCR5 was obtained and prepared with a GST tag according to the steps provided in Example 1. CCR5-GST was immobilized on a glutathione column using the GST tag, and incubated with ligands obtained using in vitro translation of small pools of approximately 100 clones from a cDNA library. […] Thereafter, a human lung cDNA library was spiked with RANTES and was transcribed and translated in vitro using the TNT Quick Coupled Wheat Germ kit, available from Promega Corporation (Madison, Wis.) with [^35S]-Met. RANTES cDNA alone was used as a positive control for translation and binding experiments.
A human lung cDNA library was chosen because RANTES was originally isolated from a human lung library. Also, libraries derived from tissues having an abundant number of immune cells, such as spleen and thymus tissues also are possible sources. The cDNA was in a bacterial host (E. coli). In general, the clones were transcribed and translated, and a mixture of their respective proteins was produced in a concentrated sample. This sample then was then probed with a receptor (i.e., CCR5) to determine if there are any proteins in the pool that can bind to the receptor of interest. The concentration was approximately 5×10^9 colony forming units per ml. Thus, dilution was necessary to dilute the number of clones to approximately 100 per pool. […]

Assay [3] deals with CCR5. Kind of assay: Affinity purification of THP-1 culture supernatant HPLC fractions on immobilized CCR5, silver stain/mass spectrometry. It is filed as binding. The settings on record: LPS-induced THP-1 supernatant, RP-HPLC fractions. On the procedure:
Expressed CCR5-GST was immobilized in the same fashion as described above using a glutathione-sepharose resin. THP-1 cells, a monocytic cell line, were induced with lipopolysaccharide (LPS) from E. coli extracts (Sigma, St. Louis, Mo.), and grown for 48 hours. THP-1 cells were selected for the purpose of this experiment because THP-1 cells are a general monocytic cell line that expresses CCR5 (the receptor of interest). Also, THP-1 cells, and other monocytes are involved in the inflammatory process and migrate to sites of inflammation in response to a chemokine gradient. These cells can also be induced to produce more chemokines by using reagents such as lipopolysaccharide (LPS) from E. coli.
The THP-1 cells were harvested by centrifugation. […] The quantity of RANTES quantitatively determined to be approximately 1 μg in approximately 2-3 L. These crude fractions or pools were purified by CCR5 affinity columns and by incubating with the immobilized CCR5. […]
The CCR5 with column fractions were compared to CCR5-only controls because there are proteins that non-specifically bind to the column, and because the CCR5 receptor and any contaminants present in the preparation can be seen as protein bands. […] Therefore, bands that were detected only in the fraction samples were submitted for sequencing and identified by mass spectrometry. […]

Assay [4] has as its system CCR5. The assay is described as follows: Ligand mixture incubated with immobilized CCR5, western blot detection. It is filed as binding. The settings on record: mixture of RANTES, MDC, gonadotropin releasing hormone. On the procedure:
CCR5 was obtained and prepared with a GST tag bound to glutathione column according to the steps provided in Example 1. Thereafter, a ligand mixture (RANTES, MDC, gonadotropin releasing hormone) was incubated with immobilized CCR5 to determine which ligands bound to the receptor. After washing to remove non-specific binding, the SDS-PAGE sample buffer was added to each, boiled for 1 minute, and loaded onto an SDS-PAGE gel. In order to analyze the beads, SDS-PAGE was performed on the various samples and transferred to nitrocellulose by western blotting to determine which ligands were bound. Duplicate samples were run, one group for detection with anti-RANTES antibody and one group for detection with anti-MDC antibody.
The molecular weights (in kDa) as determined by the standards are listed on the left side of the blot. The individual lanes are numbered across the top of the blot. Lanes 1-4 were developed with anti-RANTES antibody. […] The band at approximately 8 kDa is RANTES. […] Lane 3 is a RANTES standard (positive control). Lane 4 is the MDC (macrophage-derived chemokine) standard (negative control—[…]). Lanes 5-8 were developed with anti-MDC (macrophage-derived chemokine, a CCR4 ligand ) antibody. […] Lane 6 is the same as lane 2 but developed with anti-MDC antibody. Lane 7 is RANTES standard and Lane 8 is MDC standard. […]

A further assay has as its target T2, C5a receptor (Homo sapiens, UniProt P21730).
T2 sequence (P21730 1-350): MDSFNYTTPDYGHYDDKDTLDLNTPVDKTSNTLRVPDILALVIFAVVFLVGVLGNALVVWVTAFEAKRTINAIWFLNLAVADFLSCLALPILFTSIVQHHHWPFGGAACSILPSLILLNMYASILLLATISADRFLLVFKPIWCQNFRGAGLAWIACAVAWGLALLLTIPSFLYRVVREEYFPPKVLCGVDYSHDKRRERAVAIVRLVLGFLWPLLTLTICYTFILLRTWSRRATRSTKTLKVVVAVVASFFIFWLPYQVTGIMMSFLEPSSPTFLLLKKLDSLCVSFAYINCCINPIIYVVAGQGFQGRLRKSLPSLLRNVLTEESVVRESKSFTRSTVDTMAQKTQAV
The assay is described as follows: Binding-displacement at C5a receptor (FIG. 2E). The settings on record: membranes or solubilized receptor; 10 μM unlabeled ligand. The protocol: […], either in the membranes or solubilized (according to the invention), was incubated with the radiolabeled ligand, C5a, at a set concentration, in the presence or absence of 10 μM unlabeled ligand (C5a). In the absence of unlabeled ligand, maximal binding of the radiolabeled ligand is observed.

Assay [5] deals with CCR5. The settings on record: CCR5 membrane preparations; value obtained by Receptor Biology, own preparations comparable; read-out: Kd for MIP1-β binding; cited from earlier work.

“Also recorded” adds a separate entry of the source.

β1-adrenergic receptor, sequence (P08588 whole entry, species assumed): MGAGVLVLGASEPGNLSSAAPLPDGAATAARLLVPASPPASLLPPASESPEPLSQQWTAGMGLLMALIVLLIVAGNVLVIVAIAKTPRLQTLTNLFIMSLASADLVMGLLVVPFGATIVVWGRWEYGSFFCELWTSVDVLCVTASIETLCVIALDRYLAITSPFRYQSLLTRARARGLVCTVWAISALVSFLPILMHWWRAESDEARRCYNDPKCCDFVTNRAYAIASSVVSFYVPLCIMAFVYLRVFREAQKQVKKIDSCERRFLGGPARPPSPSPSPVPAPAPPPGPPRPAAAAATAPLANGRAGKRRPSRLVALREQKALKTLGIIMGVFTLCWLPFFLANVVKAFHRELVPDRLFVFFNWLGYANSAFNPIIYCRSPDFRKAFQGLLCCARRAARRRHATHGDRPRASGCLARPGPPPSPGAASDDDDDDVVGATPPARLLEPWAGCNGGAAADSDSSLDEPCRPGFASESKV

Take `CC(C)NCC(O)COc1cccc2[nH]ccc12` (stereo not drawn) [pindolol]: at β1-adrenergic receptor, the “displacement of radiolabeled iodocyanopindolol by unlabeled ligand” value is reported as “displacement of the radiolabeled ligand down to background levels”.

Consider “MIP-1α: natural ligand for CCR5, unlabeled competing ligand”, for which, in the assay with CCR5 [1], the “displacement of radiolabeled MIP-1β by unlabeled ligand” value is given as “displaced more of the radiolabeled ligand”. Take RANTES: a natural ligand for CCR5: the “binding of translated ligand to immobilized CCR5” value with CCR5 [2] was “binding was observed”. Besides, in the assay with CCR5 [3], the “ligand bound to immobilized CCR5, identified by mass spectrometry” value is “ligand for CCR5”. Further, in the assay with CCR5 [4], the “binding to immobilized CCR5 from ligand mixture” value was “specifically binds to the CCR5 receptor; also recorded: bound specifically to CCR5”. Regarding “statherin: second binder identified from THP-1 supernatant on CCR5 (DSSEEKFLRRIGRFGYGYGPYQPVPEQPLYPQPYQPQYQQYTF; UniProt P02808 20-62, looked up)”, the “ligand bound to immobilized CCR5, identified by mass spectrometry” value with CCR5 [3] is “binder”.

B1: MDC: macrophage-derived chemokine, a CCR4 ligand (protein, UniProt O00626 25-93, looked up)
C-C motif chemokine 22: GPYGANMEDSVCCRDYVRYRLPLRVVKHFYWTSDSCPRPGVVLLTFRDKEICADPRVPWVKMILNKLSQ
For the molecule B1, the “binding to immobilized CCR5 from ligand mixture” value in the assay on CCR5 [4] is reported as “does not bind to CCR5”.

B2: C5a: ligand of the C5a receptor (protein, UniProt P01031 678-751, looked up)
C5a anaphylatoxin: TLQKKIEEIAAKYKHSVVKKCCYDGACVNNDETCEQRAARISLGPRCIKAFTECCVVASQLRANISHKDMQLGR
modifications: C5a anaphylatoxin
notes: ligand of the C5a receptor
With B2, the “displacement of radiolabeled C5a by unlabeled ligand” value with C5a receptor was “displacement of the radiolabeled ligand down to background levels”.

B3: MIP1-β: natural ligand for CCR5, used as radioligand (protein, UniProt P13236 24-92, looked up)
C-C motif chemokine 4: APMGSDPPTACCFSYTARKLPRNFVVDYYETSSLCSQPAVVFQTKRSKQVCADPSESWVQEYVYDLELN
modifications: also: radiolabel
Broadly, the Kd is a measure of binding affinity in units of concentration. For B3, at CCR5 [5], the equilibrium dissociation constant (Kd) was under 1 nM.

The values are drawn from US20020192711A1, “Methods for identifying ligands of G-Protein-Coupled receptors” (priority 2001, published 2002).
